Assay results: patent US20240158412A1 (Faxian Therapeutics, LLC, priority 2021, published 2024)

biological target: USP7 (Homo sapiens, UniProt Q93009); test: biochemical
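Further: fluorescence intensity readout of USP7 enzymatic activity, reaction incubated 90 min at room temperature.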

Chain of USP7 (Q93009 whole entry): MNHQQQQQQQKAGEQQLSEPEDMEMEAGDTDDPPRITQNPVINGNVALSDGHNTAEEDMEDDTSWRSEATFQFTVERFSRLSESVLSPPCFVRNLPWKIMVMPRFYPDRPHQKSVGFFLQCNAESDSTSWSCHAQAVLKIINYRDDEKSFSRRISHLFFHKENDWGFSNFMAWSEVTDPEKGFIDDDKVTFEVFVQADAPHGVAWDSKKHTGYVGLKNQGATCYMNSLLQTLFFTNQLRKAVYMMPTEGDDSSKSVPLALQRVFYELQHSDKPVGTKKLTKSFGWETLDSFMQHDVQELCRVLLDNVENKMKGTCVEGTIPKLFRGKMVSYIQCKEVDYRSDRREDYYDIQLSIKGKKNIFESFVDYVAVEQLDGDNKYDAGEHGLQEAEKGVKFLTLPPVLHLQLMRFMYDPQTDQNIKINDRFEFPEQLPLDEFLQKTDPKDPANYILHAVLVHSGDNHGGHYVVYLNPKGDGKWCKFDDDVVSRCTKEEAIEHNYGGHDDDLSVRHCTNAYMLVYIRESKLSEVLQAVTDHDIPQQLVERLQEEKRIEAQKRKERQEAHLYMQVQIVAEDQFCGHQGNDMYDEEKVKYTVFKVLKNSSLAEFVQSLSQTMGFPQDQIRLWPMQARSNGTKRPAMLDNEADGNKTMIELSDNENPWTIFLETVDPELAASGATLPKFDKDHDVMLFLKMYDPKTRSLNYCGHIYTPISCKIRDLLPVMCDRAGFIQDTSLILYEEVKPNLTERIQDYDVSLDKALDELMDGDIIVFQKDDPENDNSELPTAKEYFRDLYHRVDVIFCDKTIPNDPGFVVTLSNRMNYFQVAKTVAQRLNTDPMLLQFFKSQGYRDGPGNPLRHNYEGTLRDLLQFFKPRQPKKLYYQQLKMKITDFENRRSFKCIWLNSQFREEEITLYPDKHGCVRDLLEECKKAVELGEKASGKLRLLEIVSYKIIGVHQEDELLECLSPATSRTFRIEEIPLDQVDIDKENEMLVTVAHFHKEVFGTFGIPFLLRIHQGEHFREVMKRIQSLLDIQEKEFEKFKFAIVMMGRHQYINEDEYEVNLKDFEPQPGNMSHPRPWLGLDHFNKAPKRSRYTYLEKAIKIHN

IC50	Structure (SMILES)
< 10 nM	O=c1ccn(C2CC2)c(=O)n1Cc1cc2nccc(-c3cc(Cl)cc4c3N([C@H]3CCNC3)CCC4)c2s1 [Example 72, (S)-3-((7-(6-chloro-1-(pyrrolidin-3-yl)-1,2,3,4-tetrahydroquinolin-8-yl)thieno[3,2-b]pyridin-2-yl)methyl)-1-cyclopropylpyrimidine-2,4(1H,3H)-dione]
< 10 nM	O=c1ccn(C2CC(F)(F)C2)c(=O)n1Cc1cc2nccc(-c3cc(Cl)cc4c3N([C@H]3CCNC3)CCC4)c2s1 [Example 75]
< 10 nM	O=c1ccn(CC(F)F)c(=O)n1Cc1cc2nccc(-c3cc(C(F)(F)F)cc4c3N([C@H]3CCNC3)CCC4)c2s1 [Example 81, (S)-1-(2,2-difluoroethyl)-3-((7-(1-(pyrrolidin-3-yl)-6-(trifluoromethyl)-1,2,3,4-tetrahydroquinolin-8-yl)thieno[3,2-b]pyridin-2-yl)methyl)pyrimidine-2,4(1H,3H)-dione]
< 10 nM	N#Cc1cc2c(c(-c3ccnc4cc(CN5C(=O)CCC5=O)sc34)c1)N([C@H]1CCNC1)CCC2 [Example 82, (S)-8-(2-((2,5-dioxopyrrolidin-1-yl)methyl)thieno[3,2-b]pyridin-7-yl)-1-(pyrrolidin-3-yl)-1,2,3,4-tetrahydroquinoline-6-carbonitrile]
< 10 nM	N#Cc1cc2c(c(-c3ccnc4cc(Cn5c(=O)ccn(CC(F)(F)F)c5=O)sc34)c1)N([C@H]1CCNC1)CCC2 [Example 83, (S)-8-(2-((2,6-dioxo-3-(2,2,2-trifluoroethyl)-2,3-dihydropyrimidin-1(6H)-yl)methyl)thieno[3,2-b]pyridin-7-yl)-1-(pyrrolidin-3-yl)-1,2,3,4-tetrahydroquinoline-6-carbonitrile]
< 10 nM	CCN1CC[C@H](N2CCCc3cc(C#N)cc(-c4ccnc5cc(Cn6c(=O)ccn(CC(F)(F)F)c6=O)sc45)c32)C1 [Example 84, (S)-8-(2-((2,6-dioxo-3-(2,2,2-trifluoroethyl)-2,3-dihydropyrimidin-1(6H)-yl)methyl)thieno[3,2-b]pyridin-7-yl)-1-(1-ethylpyrrolidin-3-yl)-1,2,3,4-tetrahydroquinoline-6-carbonitrile]
< 10 nM	Cn1ccc(=O)n(Cc2cc3nccc(-c4cc(C#N)cc5c4N([C@H]4CCNC4)CCC5)c3s2)c1=O [Example 87, (S)-8-(2-((3-methyl-2,6-dioxo-2,3-dihydropyrimidin-1(6H)-yl)methyl)thieno[3,2-b]pyridin-7-yl)-1-(pyrrolidin-3-yl)-1,2,3,4-tetrahydroquinoline-6-carbonitrile]
< 10 nM	N#Cc1cc2c(c(-c3ccnc4cc(Cn5c(=O)ccn(C6CC6)c5=O)sc34)c1)N([C@H]1CCNC1)CCC2 [Example 88, (S)-8-(2-((3-cyclopropyl-2,6-dioxo-2,3-dihydropyrimidin-1(6H)-yl)methyl)thieno[3,2-b]pyridin-7-yl)-1-(pyrrolidin-3-yl)-1,2,3,4-tetrahydroquinoline-6-carbonitrile]
< 10 nM	CC(F)(F)Cn1ccc(=O)n(Cc2cc3nccc(-c4cc(C#N)cc5c4N([C@H]4CCNC4)CCC5)c3s2)c1=O [Example 89, (S)-8-(2-((3-(2,2-difluoropropyl)-2,6-dioxo-2,3-dihydropyrimidin-1(6H)-yl)methyl)thieno[3,2-b]pyridin-7-yl)-1-(pyrrolidin-3-yl)-1,2,3,4-tetrahydroquinoline-6-carbonitrile]
< 10 nM	N#Cc1cc2c(c(-c3ncnc4cc(Cn5c(=O)ccn(CC(F)(F)F)c5=O)sc34)c1)N([C@H]1CCNC1)CCC2 [Example 92, (S)-8-(6-((2,6-dioxo-3-(2,2,2-trifluoroethyl)-2,3-dihydropyrimidin-1(6H)-yl)methyl)thieno[3,2-d]pyrimidin-4-yl)-1-(pyrrolidin-3-yl)-1,2,3,4-tetrahydroquinoline-6-carbonitrile]
< 10 nM	N#Cc1cc2c(c(-c3ncnc4cc(Cn5c(=O)ccn(CC(F)(F)F)c5=O)sc34)c1)N([C@@H]1CCNC1)CCC2 [Example 93, (R)-8-(6-((2,6-dioxo-3-(2,2,2-trifluoroethyl)-2,3-dihydropyrimidin-1(6H)-yl)methyl)thieno[3,2-d]pyrimidin-4-yl)-1-(pyrrolidin-3-yl)-1,2,3,4-tetrahydroquinoline-6-carbonitrile]
< 10 nM	COCCn1ccc(=O)n(Cc2cc3nccc(-c4cc(Cl)cc5c4N([C@@H]4CCNC4)CCC5)c3s2)c1=O [Example 100, (R)-3-((7-(6-chloro-1-(pyrrolidin-3-yl)-1,2,3,4-tetrahydroquinolin-8-yl)thieno[3,2-b]pyridin-2-yl)methyl)-1-(2-methoxyethyl)pyrimidine-2,4(1H,3H)-dione]
< 10 nM	O=c1ccn(CC(F)F)c(=O)n1Cc1cc2nccc(-c3cc(Cl)cc4c3N([C@H]3CCNC3)CCC4)c2s1 [Example 101, (S)-3-((7-(6-chloro-1-(pyrrolidin-3-yl)-1,2,3,4-tetrahydroquinolin-8-yl)thieno[3,2-b]pyridin-2-yl)methyl)-1-(2,2-difluoroethyl)pyrimidine-2,4(1H,3H)-dione]
< 10 nM	CC(F)(F)Cn1ccc(=O)n(Cc2cc3nccc(-c4cc(Cl)cc5c4N([C@H]4CCNC4)CCC5)c3s2)c1=O [Example 103, (S)-3-((7-(6-chloro-1-(pyrrolidin-3-yl)-1,2,3,4-tetrahydroquinolin-8-yl)thieno[3,2-b]pyridin-2-yl)methyl)-1-(2,2-difluoropropyl)pyrimidine-2,4(1H,3H)-dione]
< 10 nM	CC(F)(F)CCn1ccc(=O)n(Cc2cc3nccc(-c4cc(Cl)cc5c4N([C@H]4CCNC4)CCC5)c3s2)c1=O [Example 104, (S)-3-((7-(6-chloro-1-(pyrrolidin-3-yl)-1,2,3,4-tetrahydroquinolin-8-yl)thieno[3,2-b]pyridin-2-yl)methyl)-1-(3,3-difluorobutyl)pyrimidine-2,4(1H,3H)-dione]
< 10 nM	O=c1cc2n(c(=O)n1Cc1cc3nccc(-c4cc(Cl)cc5c4N([C@H]4CCNC4)CCC5)c3s1)CCC2 [Example 106, (S)-2-((7-(6-chloro-1-(pyrrolidin-3-yl)-1,2,3,4-tetrahydroquinolin-8-yl)thieno[3,2-b]pyridin-2-yl)methyl)-6,7-dihydropyrrolo[1,2-c]pyrimidine-1,3(2H,5H)-dione]

More lines, now with the values behind:

Structure (SMILES)	IC50
O=C1COC(=O)N1Cc1cc2nccc(-c3cc(Cl)cc4c3N([C@H]3CCNC3)CCC4)c2s1 [Example 73, (S)-3-((7-(6-chloro-1-(pyrrolidin-3-yl)-1,2,3,4-tetrahydroquinolin-8-yl)thieno[3,2-b]pyridin-2-yl)methyl)oxazolidine-2,4-dione]	< 10 nM
CN1CC(=O)N(Cc2cc3nccc(-c4cc(Cl)cc5c4N([C@H]4CCNC4)CCC5)c3s2)C1=O [Example 74, (S)-3-((7-(6-chloro-1-(pyrrolidin-3-yl)-1,2,3,4-tetrahydroquinolin-8-yl)thieno[3,2-b]pyridin-2-yl)methyl)-1-methylimidazolidine-2,4-dione]	< 10 nM
CN1CCC(=O)N(Cc2cc3nccc(-c4cc(Cl)cc5c4N([C@H]4CCNC4)CCC5)c3s2)C1=O [Example 76, (S)-3-((7-(6-chloro-1-(pyrrolidin-3-yl)-1,2,3,4-tetrahydroquinolin-8-yl)thieno[3,2-b]pyridin-2-yl)methyl)-1-methyldihydropyrimidine-2,4(1H,3H)-dione]	< 10 nM
O=C1CCN(CC(F)(F)F)C(=O)N1Cc1cc2nccc(-c3cc(Cl)cc4c3N([C@H]3CCNC3)CCC4)c2s1 [Example 77, (S)-3-((7-(6-chloro-1-(pyrrolidin-3-yl)-1,2,3,4-tetrahydroquinolin-8-yl)thieno[3,2-b]pyridin-2-yl)methyl)-1-(2,2,2-trifluoroethyl)dihydropyrimidine-2,4(1H,3H)-dione]	< 10 nM
CO[C@H]1C[C@@H](N2CC[C@H](N3CCCc4cc(C#N)cc(-c5ccnc6cc(Cn7c(=O)ccn(CC(F)(F)F)c7=O)sc56)c43)C2)C1 [Example 85, 8-(2-((2,6-dioxo-3-(2,2,2-trifluoroethyl)-2,3-dihydropyrimidin-1(6H)-yl)methyl)thieno[3,2-b]pyridin-7-yl)-1-((S)-1-((1s,3R)-3-methoxycyclobutyl)pyrrolidin-3-yl)-1,2,3,4-tetrahydroquinoline-6-carbonitrile]	10 to 100 nM
N#Cc1cc2c(c(-c3ccnc4cc(Cn5c(=O)ccn(CC(F)(F)F)c5=O)sc34)c1)N([C@H]1CCN(C3CCC3)C1)CCC2 [Example 86, (S)-1-(1-cyclobutylpyrrolidin-3-yl)-8-(2-((2,6-dioxo-3-(2,2,2-trifluoroethyl)-2,3-dihydropyrimidin-1(6H)-yl)methyl)thieno[3,2-b]pyridin-7-yl)-1,2,3,4-tetrahydroquinoline-6-carbonitrile]	10 to 100 nM
O=c1ccn(CC(F)(F)F)c(=O)n1Cc1cc2ncnc(-c3cc(Cl)cc4c3N([C@H]3CCNC3)CCC4)c2s1 [Example 91, (S)-3-((4-(6-chloro-1-(pyrrolidin-3-yl)-1,2,3,4-tetrahydroquinolin-8-yl)thieno[3,2-d]pyrimidin-6-yl)methyl)-1-(2,2,2-trifluoroethyl)pyrimidine-2,4(1H,3H)-dione]	< 10 nM
CC(C)CN1CC[C@H](N2CCCc3cc(Cl)cc(-c4ccnc5cc(CN6C(=O)CCC6=O)sc45)c32)C1 [Example 102, (S)-1-((7-(6-chloro-1-(1-isobutylpyrrolidin-3-yl)-1,2,3,4-tetrahydroquinolin-8-yl)thieno[3,2-b]pyridin-2-yl)methyl)pyrrolidine-2,5-dione]	10 to 100 nM
O=c1cc(CC(F)F)cnn1Cc1cc2nccc(-c3cc(Cl)cc4c3N([C@H]3CCNC3)CCC4)c2s1 [Example 105, (S)-2-((7-(6-chloro-1-(pyrrolidin-3-yl)-1,2,3,4-tetrahydroquinolin-8-yl)thieno[3,2-b]pyridin-2-yl)methyl)-5-(2,2-difluoroethyl)pyridazin-3(2H)-one]	< 10 nM
O=C1CCC(=O)N1Cc1cc2ncc(F)c(-c3cc(Cl)cc4c3N([C@H]3CCNC3)CCC4)c2s1 [Example 109, 1-((7-(6-chloro-1-((S)-pyrrolidin-3-yl)-1,2,3,4-tetrahydroquinolin-8-yl)-6-fluorothieno[3,2-b]pyridin-2-yl)methyl)pyrrolidine-2,5-dione]	< 10 nM
O=C1CCC(=O)N1C1(c2cc3nccc(-c4cc(Cl)cc5c4N([C@H]4CCNC4)CCC5)c3s2)CC1 [Example 110]	101 to 1000 nM
